Measurements published in publication PMC8524670 (Pharmacology Research & Perspectives, 2021).

How the values were obtained:
[1] = test system: CYP2B6; assay: CYP induction in human hepatocytes; format: in vitro ADME
[2] = biological target: T1, OATP1B1 (Homo sapiens, UniProt Q9Y6L6); assay: SLC transportation assay in HEK293 cells; format: in vitro ADME; details: uptake ratios <2 at 0.1, 0.3, 5 µM
T1 sequence (Q9Y6L6 1-691): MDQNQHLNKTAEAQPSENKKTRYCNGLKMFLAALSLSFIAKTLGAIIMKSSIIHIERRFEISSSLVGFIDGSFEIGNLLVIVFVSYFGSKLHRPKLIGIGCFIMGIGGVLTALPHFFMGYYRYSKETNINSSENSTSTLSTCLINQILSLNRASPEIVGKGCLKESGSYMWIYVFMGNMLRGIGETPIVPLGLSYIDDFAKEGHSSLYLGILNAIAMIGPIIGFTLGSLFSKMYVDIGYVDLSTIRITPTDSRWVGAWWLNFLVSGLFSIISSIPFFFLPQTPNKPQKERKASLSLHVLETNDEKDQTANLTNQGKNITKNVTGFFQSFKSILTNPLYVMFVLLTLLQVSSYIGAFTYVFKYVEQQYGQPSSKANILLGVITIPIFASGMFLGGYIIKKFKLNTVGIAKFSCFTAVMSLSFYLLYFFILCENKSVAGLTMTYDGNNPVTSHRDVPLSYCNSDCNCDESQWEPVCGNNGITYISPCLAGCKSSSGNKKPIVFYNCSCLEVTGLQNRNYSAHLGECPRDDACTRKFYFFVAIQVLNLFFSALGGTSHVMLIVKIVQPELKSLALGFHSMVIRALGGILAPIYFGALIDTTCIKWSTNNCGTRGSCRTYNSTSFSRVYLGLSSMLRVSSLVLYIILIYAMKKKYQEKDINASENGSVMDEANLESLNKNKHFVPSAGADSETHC

[3] = biological target: T2, OATP1B3 (Homo sapiens, UniProt Q9NPD5); assay: SLC inhibition assay in HEK293 cells; format: in vitro ADME; details: 0.05–5 µM
T2 sequence (Q9NPD5 1-702): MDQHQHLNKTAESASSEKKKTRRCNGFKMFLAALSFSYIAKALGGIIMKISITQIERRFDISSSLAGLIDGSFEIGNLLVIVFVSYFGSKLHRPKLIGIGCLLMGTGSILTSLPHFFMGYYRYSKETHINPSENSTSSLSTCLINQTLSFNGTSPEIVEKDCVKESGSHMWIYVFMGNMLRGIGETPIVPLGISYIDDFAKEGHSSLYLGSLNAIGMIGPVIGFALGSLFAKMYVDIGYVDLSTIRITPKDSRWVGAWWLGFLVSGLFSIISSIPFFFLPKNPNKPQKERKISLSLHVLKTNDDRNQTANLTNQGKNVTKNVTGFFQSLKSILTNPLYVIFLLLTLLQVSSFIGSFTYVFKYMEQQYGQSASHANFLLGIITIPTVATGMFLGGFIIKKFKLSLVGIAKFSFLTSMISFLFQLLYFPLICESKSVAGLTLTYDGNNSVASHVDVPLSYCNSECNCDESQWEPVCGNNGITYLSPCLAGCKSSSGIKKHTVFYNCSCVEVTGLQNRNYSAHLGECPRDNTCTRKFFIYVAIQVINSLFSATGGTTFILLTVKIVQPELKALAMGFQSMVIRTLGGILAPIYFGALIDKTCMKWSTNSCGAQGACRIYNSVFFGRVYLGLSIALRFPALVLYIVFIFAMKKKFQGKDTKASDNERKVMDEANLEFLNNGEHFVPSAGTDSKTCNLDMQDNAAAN

[4] = biological target: T3, OAT3 (Homo sapiens, UniProt Q8TCC7); assay: SLC inhibition assay in HEK293 cells; format: in vitro ADME
T3 sequence (Q8TCC7 1-542): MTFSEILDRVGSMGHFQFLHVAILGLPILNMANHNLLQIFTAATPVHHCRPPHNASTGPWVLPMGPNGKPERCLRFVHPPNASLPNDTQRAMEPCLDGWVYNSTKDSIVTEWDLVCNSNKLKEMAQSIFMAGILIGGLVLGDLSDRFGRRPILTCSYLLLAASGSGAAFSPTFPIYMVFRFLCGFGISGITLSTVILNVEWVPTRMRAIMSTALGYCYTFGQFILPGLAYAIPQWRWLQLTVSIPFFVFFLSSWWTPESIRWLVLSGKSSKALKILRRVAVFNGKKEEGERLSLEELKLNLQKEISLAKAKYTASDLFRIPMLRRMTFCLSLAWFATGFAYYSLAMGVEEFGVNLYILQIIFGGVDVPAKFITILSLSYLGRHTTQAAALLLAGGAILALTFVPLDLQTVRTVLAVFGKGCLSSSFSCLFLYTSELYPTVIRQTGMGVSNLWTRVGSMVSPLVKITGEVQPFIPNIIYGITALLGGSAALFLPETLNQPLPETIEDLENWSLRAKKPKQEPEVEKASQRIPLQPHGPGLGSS

[5] = biological target: P-gp (Homo sapiens, UniProt P08183); details: coadministration of zanubrutinib; cited from earlier work
[6] = test system: CYP1A2; assay: in vitro; details: human
[7] = biological target: CYP3A (Homo sapiens, UniProt P08684); assay: CYP reversible inhibition in HLMs; details: for R1: DDI basic model, hepatic; for R1 , gut: intestinal CYP3A, basic model; for Ag / Ah: static model term; for Ag: gut inhibition; for Ah: liver inhibition
[8] = biological target: CYP2D6 (Homo sapiens, UniProt P10635); assay: Time-dependent CYP inhibition in HLMs; details: 10 µM zanubrutinib, 30 min pre-incubation with HLMs and NADPH
[9] = human, HEK293 cells overexpressing OAT3 (and MOCK cells), probe estrone sulfate

CYP3A, sequence (P08684 2-503): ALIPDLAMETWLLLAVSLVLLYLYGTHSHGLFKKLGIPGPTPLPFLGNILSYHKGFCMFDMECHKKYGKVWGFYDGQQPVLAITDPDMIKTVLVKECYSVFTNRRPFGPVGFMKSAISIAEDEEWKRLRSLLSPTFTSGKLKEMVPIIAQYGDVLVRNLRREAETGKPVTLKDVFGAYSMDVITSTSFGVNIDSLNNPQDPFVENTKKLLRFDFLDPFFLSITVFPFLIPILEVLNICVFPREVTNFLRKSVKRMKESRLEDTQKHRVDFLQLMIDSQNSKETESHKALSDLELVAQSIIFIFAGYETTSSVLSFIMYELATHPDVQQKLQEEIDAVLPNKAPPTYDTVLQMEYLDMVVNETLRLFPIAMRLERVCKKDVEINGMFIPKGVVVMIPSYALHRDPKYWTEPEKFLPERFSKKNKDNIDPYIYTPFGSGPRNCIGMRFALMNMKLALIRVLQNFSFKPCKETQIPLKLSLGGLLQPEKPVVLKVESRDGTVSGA
P-gp, sequence (P08183 whole entry): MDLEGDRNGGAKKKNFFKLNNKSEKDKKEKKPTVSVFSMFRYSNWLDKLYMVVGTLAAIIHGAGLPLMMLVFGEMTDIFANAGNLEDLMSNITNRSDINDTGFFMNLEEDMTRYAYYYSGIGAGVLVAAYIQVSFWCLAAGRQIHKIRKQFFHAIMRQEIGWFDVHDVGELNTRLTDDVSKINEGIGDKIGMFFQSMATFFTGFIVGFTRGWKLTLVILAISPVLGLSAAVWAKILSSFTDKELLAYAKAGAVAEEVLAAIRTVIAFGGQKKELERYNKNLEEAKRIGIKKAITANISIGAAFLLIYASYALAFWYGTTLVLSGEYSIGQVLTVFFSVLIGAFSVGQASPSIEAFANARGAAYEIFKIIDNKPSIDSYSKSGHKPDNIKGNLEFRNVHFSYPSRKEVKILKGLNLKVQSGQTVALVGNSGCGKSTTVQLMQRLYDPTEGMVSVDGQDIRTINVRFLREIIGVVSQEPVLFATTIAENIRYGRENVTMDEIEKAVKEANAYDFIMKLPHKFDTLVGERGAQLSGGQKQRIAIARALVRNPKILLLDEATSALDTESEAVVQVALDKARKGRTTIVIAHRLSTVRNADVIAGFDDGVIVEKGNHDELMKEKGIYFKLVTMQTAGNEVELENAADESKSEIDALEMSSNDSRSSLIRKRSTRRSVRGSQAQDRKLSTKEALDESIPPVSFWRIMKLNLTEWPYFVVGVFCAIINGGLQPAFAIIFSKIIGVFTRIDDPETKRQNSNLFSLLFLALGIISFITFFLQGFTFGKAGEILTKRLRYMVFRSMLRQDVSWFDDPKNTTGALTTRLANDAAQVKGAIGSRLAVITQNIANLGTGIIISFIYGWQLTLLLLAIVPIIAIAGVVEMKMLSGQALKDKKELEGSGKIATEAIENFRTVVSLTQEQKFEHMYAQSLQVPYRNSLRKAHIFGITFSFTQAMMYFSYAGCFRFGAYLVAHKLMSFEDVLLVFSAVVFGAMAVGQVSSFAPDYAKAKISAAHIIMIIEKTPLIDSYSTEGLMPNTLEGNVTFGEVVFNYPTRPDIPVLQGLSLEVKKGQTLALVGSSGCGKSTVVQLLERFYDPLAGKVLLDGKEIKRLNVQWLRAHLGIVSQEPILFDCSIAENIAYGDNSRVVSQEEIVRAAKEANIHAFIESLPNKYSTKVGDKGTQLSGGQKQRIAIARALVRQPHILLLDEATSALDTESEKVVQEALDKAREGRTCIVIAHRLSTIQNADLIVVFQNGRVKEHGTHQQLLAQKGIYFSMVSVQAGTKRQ
CYP2D6, sequence (P10635 whole entry): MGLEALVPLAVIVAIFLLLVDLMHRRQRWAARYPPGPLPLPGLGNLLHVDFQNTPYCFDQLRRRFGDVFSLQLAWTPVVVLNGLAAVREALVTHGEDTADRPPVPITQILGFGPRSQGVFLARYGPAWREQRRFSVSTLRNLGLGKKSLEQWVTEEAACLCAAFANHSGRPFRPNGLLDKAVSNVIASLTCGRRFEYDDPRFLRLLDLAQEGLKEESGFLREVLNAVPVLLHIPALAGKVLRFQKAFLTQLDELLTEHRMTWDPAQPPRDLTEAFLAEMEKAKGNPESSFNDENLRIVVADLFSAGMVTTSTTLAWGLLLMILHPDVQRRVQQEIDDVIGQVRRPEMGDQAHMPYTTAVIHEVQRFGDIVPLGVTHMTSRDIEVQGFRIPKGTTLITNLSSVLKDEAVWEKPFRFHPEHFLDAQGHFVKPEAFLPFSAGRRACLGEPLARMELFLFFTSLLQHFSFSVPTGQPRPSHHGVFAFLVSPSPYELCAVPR

C=CC(=O)N1CCC([C@@H]2CCNc3c(C(N)=O)c(-c4ccc(Oc5ccccc5)cc4)nn32)CC1 [zanubrutinib]
R 3 ([1]; DDI basic model value for induction): 0.55
EC50 at 2 days ([1]; human, cryopreserved human hepatocytes): 730 nM
Ch ([1]; static model term, induction in liver): 1.23
Substrate status [2]: unlikely to be a substrate
Inhibition of uptake activity [3]: not inhibited
Inhibition of uptake activity ([4]; 0.05–5 µM): not inhibited
activity at 0.05 µM [4, 9]: 90 ± 4.2%
activity at 0.2 µM [4, 9]: 97.8 ± 7.7%
activity at 1 µM [4, 9]: 113 ± 27%
activity at 5 µM [4, 9]: 199 ± 34%
Increase of C max of P-gp probe digoxin [5]: 34%
EC50 at 2 days [6]: 290 nM
R1 ([7]; midazolam): 1.00
R1 , gut ([7]; midazolam): 241
Ag ([7]; midazolam): 0.45
Ah ([7]; midazolam): 0.99
R1 ([7]; testosterone): 1.00
R1 , gut ([7]; testosterone): 58
Ag ([7]; testosterone): 0.77
Ah ([7]; testosterone): 1.00
Percent loss of enzymatic activity [8]: −14.6%
